Assay results reported in article PMC5690597, “Suppression and resolution of autoimmune arthritis by rhesus θ-defensin-1, an immunomodulatory macrocyclic peptide” (PLoS ONE, 2017).

Tested on: DA/OlaHsd rats with pristane-induced arthritis
Experiment: Pristane-induced arthritis (PIA), established disease (AS ≥ 3)
Type: in vivo, rat
Details: for effect on arthritis progression by day 3 of treatment compared to vehicle controls: MTX 0.25 mg/kg i.p. q3d, etanercept 0.4 mg/kg s.c. q3d, P < 0.05; for rate of complete disease resolution on day 11, comparison with RA drugs: RTD-1 s.c. (4 of 16), MTX 0.25 mg/kg i.p. q3d (1 of 22), etanercept 0.4 mg/kg s.c. q3d (0 of 21), saline 0 of 19, 2 independent experiments
Description: Female DA/OlaHsd (D blood group allele and Agouti, also known as Dark Agouti), rats were obtained from Harlan Laboratories (Indianapolis, IN). Animals were allowed to acclimate for 48–72 hours prior to experimental use. Animals were fed standard chow ad lib during a 12-hour day/night cycle. PIA was induced in 5–7 week old animals (90–100 gm) by intradermal injection of 250 μl pristane (Sigma) divided into 3–5 sites at the base of the tail. Animals were monitored daily and disease severity of each limb was scored 0–4 using the method of Brand et al.. The severity scores for all limbs of individual animals were totaled to give an individual’s arthritis severity score (AS) ranging from zero for normal animals to maximum disease score of sixteen. […] In three separate trials, treatment was also blinded to scorers. […] Treatment with saline (vehicle), RTD-1, or anti-arthritic agents was randomized and initiated when an animal first presented with an AS of 3 or more. RTD-1 was administered subcutaneously with doses ranging from 0.2 to 5.0 mg/kg in an injection volume of 0.5 ml at intervals ranging from once a day (qd) to once every seven days (q7d). MTX was administered at 0.25 mg/kg by intraperitoneal injection q3d. Etanercept was administered at 0.4 mg/kg by subcutaneous injection q3d.

Compound	effect on arthritis progression by day 3 of treatment compared to vehicle controls	rate of complete disease resolution on day 11, comparison with RA drugs
CN(Cc1cnc2nc(N)nc(N)c2n1)c1ccc(C(=O)N[C@@H](CCC(=O)O)C(=O)O)cc1 [MTX, Methotrexate, reference compound]	limited the progression of arthritis	4.5%
Etanercept [reference compound]	limited the progression of arthritis	0%
